The source of these data is patent US20100249112A1, “COMBINATION OF CHK AND PARP INHIBITORS FOR THE TREATMENT OF CANCERS” (ASTRAZENECA R&D, priority 2007, published 2010).

Read-outs that look alike come from different tables or passages of the source.

The nature of data set [1]: Tolerability / max weight loss in the SW 620 tumor study. It counts as in vivo. As to conditions: for Max weight loss: 3 weeks, female nude mice. How it is done: (§1) SW 620 tumors were staged in female nude mice as described in Chapter 31 “In vivo Tumor response End Points” by B. A. Teicher (see “Tumor Models in Cancer Research” edited by Beverly A. Teicher, p596. Published by Humana Press Inc. 2002). Treatment started when tumors reached ˜170 mm^3. There were 6 groups in this study with n=10/group. PARP inhibitor 4-[3-(4-Cyclopropanecarbonyl-piperazine-1-carbonyl)-4-fluoro-benzyl]-2H-phthalazin-1-one was given 5 times weekly at 50 mg/kg PO. CHK inhibitor 5-(3-Fluoro-phenyl)-3-ureido-thiophene-2-carboxylic acid (S)-piperidin-3-ylamide was given at 12.5 mg/kg and 25 mg/kg twice weekly IV. The combination groups received PARP inhibitor at 50 mg/kg (5 times a week) and, 2 hours later, the CHK inhibitor at 12.5 or 25 mg/kg (twice a week). Mice received 3 weeks of treatment. Overall, treatment was well tolerated except in one case where a mouse was receiving a CHK inhibitor in the 25 mg/kg group it was found dead prior to study endpoint.

The subject of another data set is NCI-H460dnp53 cell line. Nature of the data set: MTS cell viability assay, CHK-PARP combination, NCI-H460dnp53. It counts as cell-based. On the procedure: (§2) Combination experiments were carried out to assess the ability of a CHK inhibitor, i.e., 5-(3-Fluoro-phenyl)-3-ureido-thiophene-2-carboxylic acid (S)-piperidin-3-ylamide, to sensitize cells to a PARP inhibitor, i.e., 4-[3-(4-Cyclopropanecarbonyl-piperazine-1-carbonyl)-4-fluoro-benzyl]-2H-phthalazin-1-one, using a cell viability endpoint.
(§3) The cell lines used in this study were SW620, which endogenously express mutant p53, and NCI-H460dominant negative p53 (NCI-H460dnp53), which are stably transfected to express dominant negative p53. Cells were seeded in 96-well plates on day 0 and treated with either a single drug or simultaneously with both drugs for 4 days beginning on Day 1.
(§4) For sequential addition, either the CHK inhibitor i.e., 5-(3-Fluoro-phenyl)-3-ureido-thiophene-2-carboxylic acid (S)-piperidin-3-ylamide, or the PARP inhibitor, i.e., 4-[3-(4-Cyclopropanecarbonyl-piperazine-1-carbonyl)-4-fluoro-benzyl]-2H-phthalazin-1-one, were added to cells for 24 hours beginning on Day 1, followed by addition of the other drug on Day 2, and exposure to both drugs continued for an additional 72 hours. […] Cells were dosed with the PARP inhibitor to generate a full dose-response curve. See Table 1 for an example of the drug concentrations used in each cell line.
(§5) Cell viability was measured on day 5 using an MTS colorimetric assay. Dose (concentration of drug used, uM) vs. Fraction unaffected (Fu) for PARP alone versus in combination were plotted. Replicate points for the constant concentration of the CHK inhibitor were also plotted. Data were analyzed by comparing the dose-response curve of the single agent to that for the combination.

A further data set deals with SW620 cell line. The data set is described as follows: MTS cell viability assay, CHK-PARP combination, SW620. It counts as cell-based. As to conditions: for IC50: Homo sapiens, SW-620, 96 h. How it is done: as §2, §3, §4, §5
The subject of another data set is SW 620 tumors. Nature of the data set: SW 620 tumor growth inhibition in female nude mice. As to conditions: 3 weeks. It is filed as in vivo. How it is done:
as §1

One may read the IC50 as the concentration that gives 50% inhibition.

As to `NC(=O)Nc1cc(-c2cccc(F)c2)sc1C(=O)N[C@H]1CCCNC1` [CHK inhibitor, 5-(3-Fluoro-phenyl)-3-ureido-thiophene-2-carboxylic acid (S)-piperidin-3-ylamide], the Max weight loss in data set [1] (12.5 mg/kg twice weekly IV) was determined as 2%; in data set [1] (25 mg/kg twice weekly IV), 1%. Further, the “Death prior to study endpoint” value in data set [1] (25 mg/kg group, one mouse) is “found dead”. The “Activity of CHK inhibitor as a single agent at the constant concentration used” value with NCI-H460dnp53 cell line (0.33 uM, determined previously) is “little or no activity”; in the data set with SW620 cell line (0.28 uM, determined previously) it was “little or no activity”. The “Tumor Growth Inhibition %” value is reported as 15% in the data set on SW 620 tumors (12.5 mg/kg twice weekly IV, p > 0.05) and 22% with SW 620 tumors (25 mg/kg twice weekly IV, p > 0.05).

`O=C(c1cc(Cc2n[nH]c(=O)c3ccccc23)ccc1F)N1CCN(C(=O)C2CC2)CC1` [PARP inhibitor, 4-[3-(4-Cyclopropanecarbonyl-piperazine-1-carbonyl)-4-fluoro-benzyl]-2H-phthalazin-1-one]: the half-inhibitory concentration (IC50) with NCI-H460dnp53 cell line (96 h, constant CHK inhibitor 0.33 uM, simultaneous addition, 4 days, 3 experiments, read-out: IC50 of PARP inhibitor, CHK inhibitor + PARP inhibitor simultaneous) is 1.9 µM; with NCI-H460dnp53 cell line (96 h, single agent, 4 days exposure, representative, 3 experiments, read-out: IC50 of PARP inhibitor alone), 17.6 µM; in the data set with NCI-H460dnp53 cell line (CHK inhibitor 24 hours, then both drugs for additional 72 hours, 1 experiment, read-out: IC50 of PARP inhibitor, CHK inhibitor followed by PARP inhibitor), 4.1 µM; in the data set on NCI-H460dnp53 cell line (PARP inhibitor 24 hours, then both drugs for additional 72 hours, 1 experiment, read-out: IC50 of PARP inhibitor, PARP inhibitor followed by CHK inhibitor), 3.6 µM; in the data set with SW620 cell line (constant CHK inhibitor 0.28 uM, simultaneous, 4 days, from 2 independent experiments, not directly comparable, read-out: IC50 of PARP inhibitor, CHK inhibitor + PARP inhibitor simultaneous), 5.8 µM; in the data set on SW620 cell line (single agent, 4 days exposure, representative, 3 experiments, read-out: IC50 of PARP inhibitor alone), 19.4 µM. Also, in the data set with SW 620 tumors (50 mg/kg PO 5 times weekly, p > 0.1), the “Tumor Growth Inhibition %” value turned out to be 22%.
